These results are taken from article PMC6337650 (Molecules, 2018).

One data set deals with HCT-116 cells. Nature of the data set: MTT antiproliferative assay, HCT-116. Particulars: Homo sapiens, HCT-116, 48 h, MTT, mean ± SD, n=3; for inhibition at 100 µM: read-out: % Growth Inhibition at 100 μM HCT-116. The class given is cell-based, human. The method, then:
(§1) The antiproliferative activity of the target compounds against a normal L02 cell line and the three different human cancer cell lines viz. colorectal (HCT-116), liver (BEL-7402) and liver (HepG2) were evaluated using a standard MTT-based colorimetric assay. All cell lines were obtained from the Key Laboratory of Natural Resources and Functional Molecules of the Changbai Mountain (Yanbian University, Jilin, China) and maintained in Dulbecco’s modified Eagle’s medium (DMEM) and RPMI Media 1640 (RPMI1640), supplemented with 10% fetal bovine serum (FBS) at 37 °C in a humidified atmosphere containing 5% CO2.
(§2) Cells were plated in 96-well plates at appropriate densities to ensure exponential growth throughout the experimental period (9 × 10^3 cells per well) and then allowed to adhere for 24 h. Cells were then treated for 48 h with four serial concentrations (1, 10, 50 and 100 µM) of each compound. 5-fluorouracil (5-FU) was used as a positive control. After 48 h of incubation, 10 µL of MTT solution was added to each well to a final concentration of 2 mg/mL. Plates were then incubated for a further 4 h. After incubation, the MTT solution was removed and 150 µL of DMSO was added to each well for coloration. The plates were shaken vigorously for 10 min at room temperature to ensure complete solubilization. The optical density (OD) was read on a microplate reader (ELx800, BioTek, Highland Park, Winooski, VT, USA) at a wavelength of 492 nm and the data were subsequently analyzed. The percentage of cell growth inhibition was calculated from the following equation: Inhibitory rate (%) = [(1 − (ODtreated-ODblank)/(ODcontrol-ODblank)] × 100.(1)
(In general: Tetrazolium dyes change colour on reduction, which living cells bring about.)

A further data set deals with BEL-7402 cells. Nature of the data set: MTT antiproliferative assay, BEL-7402. The class given is cell-based, human. Particulars: Homo sapiens, Bel-7402, 48 h, MTT, mean ± SD, n=3; for inhibition at 100 µM: read-out: % Growth Inhibition at 100 μM BEL-7402. The method, then: as §1, §2
The subject of another data set is HepG2 cells. Nature of the data set: MTT antiproliferative assay, HepG2. The class given is cell-based, human. To be noted: Homo sapiens, HepG2, 48 h, MTT, mean ± SD, n=3; for inhibition at 100 µM: read-out: % Growth Inhibition at 100 μM HepG2. The method, then:
as §1, §2

For the next data set, the system named is L02 cells. Nature of the data set: MTT assay on normal liver cells L02. Format: cell-based. To be noted: Homo sapiens, normal liver cells, 48 h, MTT, Table 2, read-out: IC50 Values (μM) L02. The method, then:
as §1
as §2, with “5-fluorouracil (5-FU) was used as a positive control.” left out

A further data set has as its system HeLa cells. Particulars: read-out: IC50 against HeLa cells; cited from earlier work.
For a further data set, the system named is HT29 cells. Particulars: cell line printed as HT24 in b5; read-out: IC50 against HT24 cell line; cited from earlier work.
The next data set has as its system AGS cells. Particulars: read-out: IC50 against AGS cells; cited from earlier work.
Another data set concerns T24 cells. To be noted: Figure 2; read-out: IC50 against T24 cells; cited from earlier work.
The subject of the next data set is HL-60 cells. Also on record: method as in PMID 26653151, PMID 25405286. To be noted: Figure 2; read-out: IC50 against HL-60 cells; cited from earlier work.

A value given as a limit tells only on which side of the number the result lay.

The molecule `C[C@@]12CC[C@@H]3[C@@](CC[C@H]4[C@@]3(C)CCC[C@@]4(C)C(=O)OCC(=O)NCc3cn(-c4ccccc4)nn3)(CC1=O)C2` [Compound 5a, 2-oxo-2-(((1-phenyl-1H-1,2,3-triazol-4-yl)methyl)amino)ethyl(4R,4aS,6aR,9S,11aR,11bS)-4,9,11b-trimethyl-8-oxotetradecahydro-6a,9-methanocyclohepta[a]naphthalene-4-carboxylate] displayed a melting point of 83 to 84 °C. Moreover, in the data set on HCT-116 cells, the inhibition at 100 µM came to 81.9 ± 2.55% and the 50% inhibitory concentration (IC50) worked out at 14.6 ± 0.51 µM. Moreover, in the data set on BEL-7402 cells, the inhibition at 100 µM worked out at 90 ± 1.92% and the IC50 was found to be 27.1 ± 0.87 µM. In the data set with HepG2 cells, the inhibition at 100 µM is 87 ± 1.06% and the IC50 was 9.87 ± 0.13 µM. Besides, in the data set on L02 cells, the concentration for half-maximal inhibition (IC50) was greater than 100 µM.
The molecule `C[C@@]12CC[C@@H]3[C@@](CC[C@H]4[C@@]3(C)CCC[C@@]4(C)C(=O)OCC(=O)NCc3cn(-c4ccc(Cl)cc4)nn3)(CC1=O)C2` [Compound 5b, 2-(((1-(4-chlorophenyl)-1H-1,2,3-triazol-4-yl)methyl)amino)-2-oxoethyl(4R,4aS,6aR,9S,11aR,11bS)-4,9,11b-trimethyl-8-oxotetradecahydro-6a,9-methanocyclohepta[a]naphthalene-4-carboxylate] came in with a melting point of 80 to 82 °C. In addition, in the data set with HCT-116 cells, the inhibition at 100 µM was 85.6 ± 1.34% and the midpoint of inhibition, the IC50, lay at 7.44 ± 0.37 µM. For the same molecule, in the data set with BEL-7402 cells, the inhibition at 100 µM was 90.5 ± 1.04% and half-maximal inhibition (IC50) required 22.5 ± 0.58 µM. Moreover, in the data set with HepG2 cells, the inhibition at 100 µM was 82.1 ± 1.82% and the IC50 is 11.7 ± 0.23 µM. Moreover, the 50% inhibitory concentration (IC50) in the data set on L02 cells was greater than 100 µM.
`COc1ccc(-n2cc(CNC(=O)COC(=O)[C@]3(C)CCC[C@@]4(C)[C@@H]5CC[C@@]6(C)C[C@]5(CC[C@@H]43)CC6=O)nn2)cc1` [Compound 5c, 2-(((1-(4-methoxyphenyl)-1H-1,2,3-triazol-4-yl)methyl)amino)-2-oxoethyl(4R,4aS,6aR,9S,11aR,11bS)-4,9,11b-trimethyl-8-oxotetradecahydro-6a,9-methanocyclohepta[a]naphthalene-4-carboxylate]: the melting point is 71 to 72 °C. In the data set on HCT-116 cells, the inhibition at 100 µM came to 84.6 ± 1.55% and the IC50 turned out to be 14.4 ± 1.31 µM. In the data set on BEL-7402 cells, the inhibition at 100 µM was 75.6 ± 1.76% and the concentration for half-maximal inhibition (IC50) is greater than 100 µM. Further, in the data set on HepG2 cells, the inhibition at 100 µM amounted to 82.8 ± 2.02% and the 50% inhibitory concentration (IC50) is 12.3 ± 0.77 µM. For the same molecule, the half-inhibitory concentration (IC50) in the data set on L02 cells is greater than 100 µM.
Molecule `C[C@@]12CC[C@@H]3[C@@](CC[C@H]4[C@@]3(C)CCC[C@@]4(C)C(=O)OCC(=O)NCc3cn(-c4ccc(Cl)c(Cl)c4)nn3)(CC1=O)C2` [Compound 5e, 2-(((1-(3,4-dichlorophenyl)-1H-1,2,3-triazol-4-yl)methyl)amino)-2-oxoethyl(4R,4aS,6aR,9S,11aR,11bS)-4,9,11b-trimethyl-8-oxotetradecahydro-6a,9-methanocyclohepta[a]naphthalene-4-carboxylate] returned a melting point of 96 to 97 °C. Moreover, in the data set on HCT-116 cells, the inhibition at 100 µM was determined as 71.14 ± 0.65% and 14.3 ± 0.15 µM corresponded to half-maximal inhibition (IC50). In the data set on BEL-7402 cells, the inhibition at 100 µM turned out to be 68 ± 1.17% and the IC50 was greater than 100 µM. Besides, in the data set with HepG2 cells, the inhibition at 100 µM stood at 66.1 ± 0.97% and the IC50 stood at 12.82 ± 0.09 µM. Moreover, in the data set on L02 cells, the IC50 is greater than 100 µM.
On to `CCOP(=O)(OCC)C(NC(=O)COC(=O)[C@]1(C)CCC[C@@]2(C)[C@@H]3CC[C@@]4(C)C[C@]3(CC[C@@H]21)CC4=O)c1ccc(OC)cc1` (stereo partly drawn) [Compound 6c, 2-(((diethoxyphosphoryl)(4-methoxyphenyl)methyl)amino)-2-oxoethyl(4R,4aS,6aR,9S,11aR,11bS)-4,9,11b-trimethyl-8-oxotetradecahydro-6a,9-methanocyclohepta[a]naphthalene-4-carboxylate], for which the melting point is 134 to 135 °C. For the same molecule, in the data set on HCT-116 cells, the inhibition at 100 µM was determined as 74.1 ± 2.45% and it took 15.15 ± 0.11 µM to reach half-maximal inhibition (IC50). Moreover, in the data set with BEL-7402 cells, the inhibition at 100 µM was found to be 50.9 ± 2.68% and half-maximal inhibition (IC50) was put at 92.6 ± 1.96 µM. Further, in the data set with HepG2 cells, the inhibition at 100 µM is 41.4 ± 1.86% and the IC50 was greater than 100 µM. In the data set with L02 cells, the IC50 was greater than 100 µM.
In the case of `CCOP(=O)(OCC)C(NC(=O)COC(=O)[C@]1(C)CCC[C@@]2(C)[C@@H]3CC[C@@]4(C)C[C@]3(CC[C@@H]21)CC4=O)c1ccc(C)cc1` (stereo partly drawn) [Compound 6d, 2-(((diethoxyphosphoryl)(p-tolyl)methyl)amino)-2-oxoethyl(4R,4aS,6aR,9S,11aR,11bS)-4,9,11b-trimethyl-8-oxotetradecahydro-6a,9-methanocyclohepta[a]naphthalene-4-carboxylate], the melting point fell in the range of 119 to 120 °C. Moreover, in the data set with HCT-116 cells, the inhibition at 100 µM is 76.6 ± 2.33% and the midpoint of inhibition, the IC50, lay at 18.7 ± 0.17 µM. In the data set with BEL-7402 cells, the inhibition at 100 µM came out at 51.5 ± 0.68% and inhibition was half-maximal at 60.9 ± 1.37 µM (IC50). Moreover, in the data set on HepG2 cells, the inhibition at 100 µM was 80.64 ± 0.76% and the IC50 came to 13.2 ± 0.86 µM. The IC50 with L02 cells was greater than 100 µM.
On to `CC(=O)O[C@H]1CC[C@@]2(C)C(CC[C@]3(C)C2CC=C2C4[C@@H](C)[C@H](C)CC[C@]4(C(=O)Nc4ccccc4)CC[C@]23C)C1(C)C` (some centres unmarked) [Compound A], for which, in the data set with HeLa cells, the IC50 was 1.63 µM.
In the case of `CC(=O)O[C@H]1CC[C@@]2(C)C(CC[C@]3(C)C2CC=C2C4CC(C)(C)CC[C@]4(C(=O)NCCN4CCCC4)CC[C@]23C)C1(C)C` (some centres unmarked) [Compound B], in the data set with HT29 cells, the concentration for half-maximal inhibition (IC50) is 1.3 µM.
Regarding `COC(=O)C(Cc1c[nH]c2ccccc12)NC(=O)[C@]1(C)CC[C@]2(C)CC[C@]3(C)C4=CC=C5C(=CC(=O)C(O)=C5C)[C@]4(C)CC[C@@]3(C)C2C1` (some centres unmarked) [Compound C], the IC50 with AGS cells is 0.44 µM.
For `CCOP(=O)(OCC)C(NC(=O)[C@]12CC[C@@H](C)[C@H](C)[C@H]1C1=CC[C@@H]3[C@@]4(C)C[C@@H](OC(C)=O)[C@H](OC(C)=O)[C@@](C)(COC(C)=O)[C@@H]4CC[C@@]3(C)[C@]1(C)CC2)c1ccccc1Cl` (some centres unmarked) [Compound D], the IC50 in the data set with T24 cells was 6.59 µM.
As for `COC(=O)[C@]1(C)CCC[C@@]2(C)[C@@H]3CC[C@@]4(C)C[C@@]3(C=C4c3cn(CCCc4ccccc4)nn3)CC[C@@H]21` [Compound E], in the data set on HL-60 cells, the IC50 was 25.6 µM.

As usually defined, the inhibition is the change of the read-out against control, counted positive when it falls. One may read the IC50 as the concentration at which inhibition is half-maximal. As a reminder, the melting point is the temperature, or range, at which the solid turns liquid.
